What was measured:
[1] = test system: healthy, non-diabetic patients; conditions: doses of 40 mg or 80 mg; hypoglycaemia defined as 2.7 mmol/l; cited from earlier work
human hepatocytes = conditions: cited from earlier work
rat glucokinase = molecular target: T1, rat glucokinase (Rattus norvegicus, UniProt P17712); conditions: read-out: EC50 activation of glucokinase; recombinant rat enzyme, in vitro; cited from earlier work
T1 sequence (P17712 1-465): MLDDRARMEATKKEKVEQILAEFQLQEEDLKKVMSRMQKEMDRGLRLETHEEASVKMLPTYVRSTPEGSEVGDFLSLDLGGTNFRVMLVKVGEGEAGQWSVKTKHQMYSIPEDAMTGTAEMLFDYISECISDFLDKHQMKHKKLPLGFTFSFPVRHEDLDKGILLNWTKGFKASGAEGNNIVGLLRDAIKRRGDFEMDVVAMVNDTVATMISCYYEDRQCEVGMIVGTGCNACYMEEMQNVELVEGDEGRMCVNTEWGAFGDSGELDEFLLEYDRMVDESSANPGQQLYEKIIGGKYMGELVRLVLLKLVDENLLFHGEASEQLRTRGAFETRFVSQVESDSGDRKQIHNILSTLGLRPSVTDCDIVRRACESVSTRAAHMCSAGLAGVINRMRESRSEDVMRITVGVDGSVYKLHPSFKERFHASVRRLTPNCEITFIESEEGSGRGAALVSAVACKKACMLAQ

human glucokinase = human glucokinase (Homo sapiens, UniProt P35557); conditions: read-out: EC50 activation of glucokinase; recombinant human enzyme, in vitro; cited from earlier work
rat hepatocytes = conditions: cited from earlier work
[2] = test system: hospitalised diabetic patients with known or suspected COVID-19; conditions: 60 patients, test and control group combined (blinded); 12 deaths expected from Coronad study
diabetic mice = conditions: dosed acutely and once daily for up to 28 days, rapid onset of action; cited from earlier work
healthy animals = conditions: cited from earlier work
[3] = test system: Japanese type 2 diabetic subjects; conditions: cited from earlier work
[4] = test system: normo-glycaemic insulin resistant rats; conditions: dosed acutely and once daily for up to 28 days, rapid onset of action; cited from earlier work

Chain of human glucokinase (P35557 whole entry): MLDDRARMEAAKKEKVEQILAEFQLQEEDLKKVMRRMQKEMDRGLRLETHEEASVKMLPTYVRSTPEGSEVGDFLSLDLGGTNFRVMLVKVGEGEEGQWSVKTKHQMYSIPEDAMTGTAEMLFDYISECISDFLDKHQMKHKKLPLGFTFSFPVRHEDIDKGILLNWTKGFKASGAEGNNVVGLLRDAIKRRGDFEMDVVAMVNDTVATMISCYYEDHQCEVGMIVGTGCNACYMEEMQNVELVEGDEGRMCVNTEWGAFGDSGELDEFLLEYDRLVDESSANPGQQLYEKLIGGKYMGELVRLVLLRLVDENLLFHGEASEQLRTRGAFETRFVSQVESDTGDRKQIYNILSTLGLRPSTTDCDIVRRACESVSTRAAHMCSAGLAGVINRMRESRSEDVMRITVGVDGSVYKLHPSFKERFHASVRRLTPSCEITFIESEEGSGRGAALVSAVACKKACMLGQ

COC[C@H](C)Oc1cc(Oc2cnc(C(=O)N3CCC3)cn2)cc(C(=O)Nc2cnc(C)cn2)c1 [AZD1656, 3-{[5-(Azetidin-1-ylcarbonyl)pyrazin-2-yl]oxy}-5-{[(1S)-1-methyl-2-(methyloxy)ethyl]oxy}-N-(5-methylpyrazin-2-yl)benzamide]
hypoglycaemia [1]: not to cause hypoglycaemia
EC50 (human hepatocytes): 1390 nM
EC50 (rat glucokinase): 72 nM
EC50 (human glucokinase): 57 nM
EC50 (rat hepatocytes): 470 nM
deaths among patients who completed the trial protocol [2]: 5
plasma glucose levels (diabetic mice): reduces plasma glucose levels in a dose-dependent fashion
changes in the liver, considered secondary to hypoglycaemia (healthy animals; healthy animals, chronic toxicology studies): loss of hepatocellular glycogen
chronic toxicology findings (healthy animals; healthy animals, higher doses, up to 12 months): severe hypoglycaemia at higher doses and sequalae such as Wallerian type nerve degeneration and skeletal muscle fibre degeneration
glucose lowering effect (healthy animals; preclinical studies of up to 12-month duration): potent glucose lowering effect
HbA1c and fasting plasma glucose (FPG) levels ([3]; BID at high (40-200 mg/day), medium (20-140 mg/day) and low (10-80 mg/day) doses over 4 months): found to lower HbA1c and fasting plasma blood (FPG) glucose levels
change in HbA1c or FPG from baseline ([3]; at 4 months): no statistically significant change
time course of HbA1c/FPG effect ([3]; between weeks 8 and 16): transient trending towards pre-dose levels
plasma glucose levels [4]: reduces plasma glucose levels in a dose-dependent fashion
